According to patent US9790233B2, “Compositions and methods of modulating 15-PGDH activity” (CASE WESTERN RESERVE UNIVERSITY, priority 2012, dated 2017):
Like-named read-outs stand apart in the source and are kept apart here.

Legend:
Assay type in all cases: cell-based
[1] = system: 15-PGDH luciferase fusion construct in LS174T reporter cell line; assay: 15-PGDH-luciferase fusion gene reporter induction, LS174T cells; settings: Homo sapiens
[2] = system: 15-PGDH luciferase fusion construct in V9m reporter cell line; assay: 15-PGDH-luciferase fusion gene reporter induction, V9m cells; settings: % induction of luciferase activity over basal level
[3] = system: 15-PGDH luciferase fusion construct in Vaco503 reporter cell line; assay: 15-PGDH-luciferase fusion gene reporter induction, V503 cells; settings: read-out: V503-3H9-7 reporter activity, % ([…]), V503 reporter cells, […] compound, % induction of luciferase activity over basal level
[4] = read-out: Ls174T-SC1 reporter activity, % ([…]), LS174T reporter cells, […] compound, % induction of luciferase activity over basal level, read-out: Ls174T-SC1 reporter activity, % (2.5 μM)
[5] = read-out: Ls174T-SC1 reporter activity, % ([…]), LS174T reporter cells, […] compound, % induction of luciferase activity over basal level, read-out: Ls174T-SC1 reporter activity, % (7.5 μM)
[6] = read-out: V9M-SC3 Reporter activity ([…]) (%), V9m reporter cells, […] compound, read-out: V9M-SC3 Reporter activity (2.5 μM) (%)
[7] = read-out: V9M-SC3 Reporter activity ([…]), %, V9m reporter cells, […] compound, read-out: V9M-SC3 Reporter activity (7.5 μM), %
[8] = read-out: V503-3H9-7 reporter activity, % (2.5 μM)
[9] = read-out: V503-3H9-7 reporter activity, % (7.5 μM)

SMILES	activation at […] [1, 4]	activation at […] [1, 5]	activation at […] [2, 6]	activation at […] [2, 7]	activation at […] [3, 8]	activation at […] [3, 9]
COc1ccc(OC)c(N(CC(=O)Nc2ccnc(Cl)c2)S(=O)(=O)c2ccccc2)c1 [SW202946]	105%	-23.6%	64.6%	-41.5%	137%	34.3%
COc1ccc(OC)c(N(CC(=O)Nc2cccnc2)S(=O)(=O)c2ccccc2F)c1 [SW202947]	52%	21.2%	21.9%	2.57%	143%	97.8%
COc1ccc(OC)c(NCC(=O)Nc2cccnc2)c1 [SW202948]	-6.73%	8.36%	-22%	-23.1%	16.4%	7.54%
COc1ccc(OC)c(N(CC(=O)Nc2cccnc2)S(=O)(=O)c2ccccc2Cl)c1 [SW202949]	-1.58%	-5.87%	5.76%	-5.69%	-12.5%	5.32%
COc1ccc(OC)c(N(CC(=O)Nc2cccnc2)S(=O)(=O)c2ccc(C(C)=O)cc2)c1 [SW202950]	-2.7%	10.7%	12.6%	23.9%	-6.56%	12.9%
COc1ccc(OC)c(N(CC(=O)Nc2cccnc2)C(C)=O)c1 [SW202952]	-10.3%	10.6%	-20.7%	-19.5%	26.2%	7.16%
COc1ccc(OC)c(N(CC(=O)Nc2cccnc2)S(=O)(=O)c2c(C)cc(C)cc2C)c1 [SW202953]	20.7%	30.7%	13%	34.8%	32%	50.9%
COc1ccc(OC)c(N(CC(=O)Nc2cccnc2)S(=O)(=O)c2ccccc2OC(F)(F)F)c1 [SW202954]	-4.59%	-6.99%	2.7%	4.8%	-8.94%	2.39%
COc1ccc(OC)c(N(CC(=O)Nc2ccccc2OC)S(=O)(=O)c2ccccc2)c1 [SW202965]	-23.5%	3.52%	-30.9%	-25.8%	23.8%	98.1%
COc1ccc(OC)c(N(CC(=O)Nc2ccnc(C)c2)S(=O)(=O)c2ccccc2)c1 [SW202966]	1.82%	78.2%	-0.84%	67.7%	115%	249%
COc1ccc(OC)c(N(CC(=O)Nc2cnccc2C)S(=O)(=O)c2ccccc2)c1 [SW202967]	-11.7%	9.37%	-16%	0%	34%	69.6%
COc1ccc(OC)c(N(CC(=O)Nc2cccnc2C)S(=O)(=O)c2ccccc2)c1 [SW202968]	-17.5%	6.08%	-21.1%	-7.36%	35.2%	53.9%
COc1ccc(OC)c(N(CC(=O)Nc2cccc(C)c2)S(=O)(=O)c2ccccc2)c1 [SW202969]	-15.9%	17.9%	-21%	-14.3%	62.4%	126%
COc1ccc(OC)c(N(CC(=O)Nc2ccc(Cl)nc2)S(=O)(=O)c2ccccc2)c1 [SW202970]	47.9%	55.9%	32.7%	17.8%	179%	122%
COc1ccc(OC)c(N(CC(=O)OC(C)C)S(=O)(=O)c2ccccc2)c1 [SW202971]	-7.91%	34.5%	-14.5%	9.67%	85.5%	169%
COc1ccc(OC)c(N(CC(=O)Nc2cc(C)cnc2Cl)S(=O)(=O)c2ccccc2)c1 [SW202972]	-17.4%	16.6%	-15.4%	0.14%	39.4%	100%
COc1ccc(OC)c(N(CC(=O)Nc2cccnc2Cl)S(=O)(=O)c2ccccc2)c1 [SW202973]	-16.4%	19.3%	-15.6%	5.61%	41.5%	107%

SMILES	activation at […] [1, 4]	activation at […] [1, 5]	activation at […] [2, 6]	activation at […] [2, 7]	activation at […] [3, 8]	activation at […] [3, 9]
COc1ccc(OC)c(N(CC(=O)Nc2cncc(C)c2)S(=O)(=O)c2ccccc2)c1 [SW202974]	-8.77%	34.8%	-9.04%	35.9%	59.9%	179%
COc1ccc(OC)c(N(CC(=O)Nc2ccccc2C)S(=O)(=O)c2ccccc2)c1 [SW202975]	-7.32%	17.2%	-26.6%	-8.97%	47.4%	116%
COc1cccc(NC(=O)CN(c2cc(OC)ccc2OC)S(=O)(=O)c2ccccc2)c1 [SW202976]	-9.97%	30.1%	-18.5%	9.6%	36.8%	138%
COc1ccc(OC)c(N(CC(=O)OC2CCCCC2)S(=O)(=O)c2ccccc2)c1 [SW202978]	-10.1%	20.4%	-13.8%	-0.07%	46.8%	116%
COc1ccc(OC)c(N(CC(=O)OC(C)(C)C)S(=O)(=O)c2ccccc2)c1 [SW202979]	-8.92%	17.8%	-14.4%	10.8%	41.6%	133%
COC(=O)CN(c1cc(OC)ccc1OC)S(=O)(=O)c1ccccc1 [SW202980]	-7.34%	5.17%	-27.6%	-13.4%	11.4%	50.6%
COc1ccc(OC)c(N(CC(=O)Nc2cccc(Cl)c2)S(=O)(=O)c2ccccc2)c1 [SW202985]	-4.89%	26.3%	-27.3%	-21.9%	79.6%	150%
CCCOC(=O)CN(c1cc(OC)ccc1OC)S(=O)(=O)c1ccccc1 [SW202986]	0.21%	33.8%	-22.9%	-9.6%	60.2%	175%
COc1ccc(OC)c(N(CC(=O)Nc2ccccc2Cl)S(=O)(=O)c2ccccc2)c1 [SW202987]	-8.3%	20.6%	-22%	-21%	70.1%	145%
COc1ccc(OC)c(N(C(C)C(=O)Nc2cccnc2)S(=O)(=O)c2ccccc2)c1 (stereo not drawn) [SW202991]	-15.6%	2.09%	-25%	-7.5%	-6.08%	8.9%
COc1ccc(OC)c(N(CC(=O)Nc2cccnn2)S(=O)(=O)c2ccccc2)c1 [SW203680]	11.7%	46%	14%	25.2%	10.4%	33%
COc1ccc(OC)c(N(CC(=O)Nc2cnccn2)S(=O)(=O)c2ccccc2)c1 [SW203681]	121%	152%	18%	122%	90.4%	72.4%
CNC(=O)CN(c1cc(OC)ccc1OC)S(=O)(=O)c1ccccc1 [SW203682]	187%	13.8%	15.3%	22.4%	-32.2%	79.2%
COc1ccc(OC)c(N(CC(=O)Nc2cccnc2)S(=O)(=O)c2cccc(C)c2)c1 [SW203684]	170%	119%	50.7%	74.9%	81.2%	52.5%
COc1ccc(OC)c(N(CC(=O)N(C)c2cccnc2)S(=O)(=O)c2ccccc2)c1 [SW203686]	116%	28.5%	15.1%	30.3%	-11%	65.6%
COc1ccc(OC)c(N(CC(=O)Nc2ccccc2)S(=O)(=O)c2ccccc2)c1 [SW203687]	1.75%	56%	28.2%	47.5%	45.7%	-41.6%
